Test: First trials dissolving rivaroxaban into Soluplus polymer
Type: physicochemical
Conditions: total API/Polymer ratio=0.1

For O=C(NC[C@H]1CN(c2ccc(N3CCOCC3=O)cc2)C(=O)O1)c1ccc(Cl)s1 [rivaroxaban], the “maximum amount of rivaroxaban dissolvable into Soluplus” value was at most 10%.
